Source: US20160145247A1, “Aminomethyl-Biaryl Derivatives Complement Factor D inhibitors and uses thereof” (NOVARTIS AG, priority 2013, published 2016)
pIC50: −log10 of the molar value.

Target: T1, factor D (Homo sapiens, UniProt P00746)
T1 construct: made in house; host or cells: E. coli
Assay: factor D inhibition assay of Biological Example 2
Assay type: biochemical

T1 sequence (P00746 26-253): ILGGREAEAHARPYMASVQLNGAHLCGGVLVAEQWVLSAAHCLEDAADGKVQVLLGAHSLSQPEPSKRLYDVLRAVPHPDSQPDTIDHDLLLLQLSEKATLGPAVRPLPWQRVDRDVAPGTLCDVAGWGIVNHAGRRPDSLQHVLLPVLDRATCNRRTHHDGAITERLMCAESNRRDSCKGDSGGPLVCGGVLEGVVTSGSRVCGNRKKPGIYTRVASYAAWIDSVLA

Row | SMILES | pIC50
1 | C[C@@H](N)c1cccc(-c2cc(COc3ccccc3CC(=O)O)cc(NCC(F)F)c2)c1F [Example 216-M] | 7.89
2 | C[C@@H](N)c1cccc(-c2cc(COc3ccccc3CC(=O)O)cc(N(C)CC(F)F)c2)c1F [Example 216-N] | 7.62
3 | C[C@H](N)c1cccc(-c2cc(CCc3ccncc3)cc(COc3ccccc3CC(=O)O)c2)c1F [Example 216-O] | 7.11
4 | C[C@@H](N)c1cccc(-c2cc(CCc3ccncc3)cc(COc3ccccc3CC(=O)O)c2)c1F [Example 216-P] | 7.89
5 | C[C@@H](N)c1cccc(-c2cc(COc3ccccc3CC(=O)O)cc(C(=O)N(C)C)c2)c1F [Example 216-R] | 6.83
6 | C[C@@H](N)c1cccc(-c2cc(Cl)cc(COc3ccccc3CC(=O)O)c2)c1F [Example 216-S] | 7.68
7 | C[C@@H](N)c1cccc(-c2cc(NC[C@H]3CCCO3)c3c(c2)C(Oc2ccccc2CC(=O)O)CCO3)c1F (stereo partly shown) [Example 216-W] | 7.77
8 | C[C@@H](N)c1cccc(-c2cc(NCC3CC3)c3c(c2)C(Oc2ccccc2CC(=O)O)CCO3)c1F (stereo partly shown) [Example 216-X] | 7.85
9 | C[C@@H](N)c1cccc(-c2cc(NC[C@H]3CCCO3)c3c(c2)C(Oc2ccccc2CC(=O)O)CCC3)c1F (stereo partly shown) [Example 216-Y] | 7.72
10 | C[C@@H](N)c1cccc(-c2cc(NCC3CC3)c3c(c2)C(Oc2ccccc2CC(=O)O)CCC3)c1F (stereo partly shown) [Example 216-Z] | 7.89
11 | C[C@@H](N)c1cccc(-c2ccc3c(c2)N(Cc2ccccc2CC(=O)O)CCC3)c1F [Example 219-D, (R)-2-(2-((7-(3-(1-Aminoethyl)-2-fluorophenyl)-3,4-dihydroquinolin-1(2H)-yl)methyl)phenyl)acetic acid] | 7.21
12 | C[C@@H](N)c1cccc(-c2cccc(N(C)Cc3ccccc3CC(=O)O)c2)c1F [Example 220-D, (R)-2-(2-(((3′-(1-aminoethyl)-2′-fluoro-[1,1′-biphenyl]-3-yl)(methyl)amino)methyl)phenyl)acetic acid] | 7.36
13 | C[C@@H](N)c1cccc(-c2cc(COc3ccccc3CC(=O)O)cc(NCC3CCCO3)c2F)c1F (stereo partly drawn) [Example 222, 2-(2-((3′-((R)-1-aminoethyl)-2′,6-difluoro-5-(((tetrahydrofuran-2-yl)methyl)amino)-[1,1′-biphenyl]-3-yl)methoxy)phenyl)acetic acid] | 7.80
14 | C[C@@H](N)c1cccc(-c2cc(COc3ccccc3CC(=O)O)cc(NC[C@H]3CCCO3)c2)n1 [Example 225-C, 2-(2-((3-(6-((R)-1-aminoethyl)pyridin-2-yl)-5-((((R)-tetrahydrofuran-2-yl)methyl)amino)benzyl)oxy)phenyl)acetic acid] | 7.80
15 | CC(=O)N(C)c1cc(COc2ccccc2CC(=O)O)cc(-c2cccc([C@@H](C)N)c2F)c1 [Example 229, (R)-2-(2-((3′-(1-aminoethyl)-2′-fluoro-5-(N-methylacetamido)-[1,1′-biphenyl]-3-yl)methoxy)phenyl)acetic acid] | 6.97
16 | C[C@@H](N)c1cccc(-c2cc(COc3ccccc3CC(=O)O)cc(OC[C@H]3CCCO3)c2)n1 [Example 235, 2-(2-((3-(6-((R)-1-aminoethyl)pyridin-2-yl)-5-(((R)-tetrahydrofuran-2-yl)methoxy)benzyl)oxy)phenyl)acetic acid] | 7.47
17 | C[C@@H](N)c1cccc(-c2cc(CCC3CCCN3)cc(COc3ccccc3CC(=O)O)c2)c1F (stereo partly drawn) [Example 238, 2-(2-((3′-((R)-1-aminoethyl)-2′-fluoro-5-(2-(pyrrolidin-2-yl)ethyl)-[1,1′-biphenyl]-3-yl)methoxy)phenyl)acetic acid] | 7.64
18 | C[C@@H](N)c1cccc(-c2cc(CCC3CNCCO3)cc(COc3ccccc3CC(=O)O)c2)c1F (stereo partly drawn) [Example 239-C, 2-(2-((3′-((R)-1-aminoethyl)-2′-fluoro-5-(2-(morpholin-2-yl)ethyl)-[1,1′-biphenyl]-3-yl)methoxy)phenyl)acetic acid] | 7.89
19 | C[C@@H](N)c1cccc(-c2cc(CCC3CCCN3C)cc(COc3ccccc3CC(=O)O)c2)c1F (stereo partly drawn) [Example 240-B, 2-(2-((3′-((R)-1-aminoethyl)-2′-fluoro-5-(2-(1-methylpyrrolidin-2-yl)ethyl)-[1,1′-biphenyl]-3-yl)methoxy)phenyl)acetic acid] | 6.96
20 | C[C@@H](N)c1cccc(-c2cc(COc3ccccc3CC(=O)O)cc(N3CCCCC3)c2)c1F [Example 241-C, (R)-2-(2-((3′-(1-Aminoethyl)-2′-fluoro-5-(piperidin-1-yl)-[1,1′-biphenyl]-3-yl)methoxy)phenyl)acetic acid] | 7.40
21 | CCN(CC1CC1)c1cc(COc2ccccc2CC(=O)O)cc(-c2cccc([C@@H](C)N)c2F)c1 [Example 242-C, (R)-2-(2-((3′-(1-aminoethyl)-5-((cyclopropylmethyl)(ethyl)amino)-2′-fluoro-[1,1′-biphenyl]-3-yl)methoxy)phenyl)acetic acid] | 7.05

The next molecules have a higher pIC50 than those just listed; values first:

Row | pIC50 | SMILES
22 | 7.92 | NC(CF)c1cccc(-c2cc(CCc3ccncc3)cc(COc3ccccc3CC(=O)O)c2)c1F (stereo not shown) [Example 216-Q]
23 | 7.96 | C[C@@H](N)c1cccc(-c2cc(COc3ccccc3CC(=O)O)cc(OCC(F)(F)F)c2)c1F [Example 231-B, (R)-2-(2-((3′-(1-aminoethyl)-2′-fluoro-5-(2,2,2-trifluoroethoxy)-[1,1′-biphenyl]-3-yl)methoxy)phenyl)acetic acid]
24 | 7.96 | C[C@@H](N)c1cccc(-c2cc(CCC3CCCC3)cc(COc3ccccc3CC(=O)O)c2)c1F [Example 237, (R)-2-(2-((3′-(1-aminoethyl)-5-(2-cyclopentylethyl)-2′-fluoro-[1,1′-biphenyl]-3-yl)methoxy)phenyl)acetic acid]
25 | 8.00 | C[C@@H](N)c1cccc(-c2cc(CCc3ccn(C)n3)cc(COc3ccccc3CC(=O)O)c2)c1F [Example 218-I, (R)-2-(2-((3′-(1-aminoethyl)-2′-fluoro-5-(2-(1-methyl-1H-pyrazol-3-yl)ethyl)-[1,1′-biphenyl]-3-yl)methoxy)phenyl)acetic acid]
26 | 8.00 | C[C@@H](N)c1cccc(-c2cc(COc3ccccc3CC(=O)O)cc(NCC3(C)CC3)c2)c1F [Example 227, (R)-2-(2-((3′-(1-aminoethyl)-2′-fluoro-5-(((1-methylcyclopropyl)methyl)amino)-[1,1′-biphenyl]-3-yl)methoxy)phenyl)acetic acid]
27 | 8.05 | C[C@@H](N)c1cccc(-c2cc(COc3ccccc3CC(=O)O)cc(NCc3ccccn3)c2)c1F [Example 216-T]
28 | 8.05 | C[C@@H](N)c1cccc(-c2cc(COc3ccccc3CC(=O)O)cc(N3CCCC3)c2)c1F [Example 216-V]
29 | 8.05 | COCCNc1cc(COc2ccccc2CC(=O)O)cc(-c2cccc([C@@H](C)N)c2F)c1 [Example 223-B, (R)-2-(2-((3′-(1-aminoethyl)-2′-fluoro-5-((2-methoxyethyl)amino)-[1,1′-biphenyl]-3-yl)methoxy)phenyl)acetic acid]
30 | 8.05 | CC(C)CNc1cc(COc2ccccc2CC(=O)O)cc(-c2cccc([C@@H](C)N)c2F)c1 [Example 224-B, (R)-2-(2-((3′-(1-aminoethyl)-2′-fluoro-5-(isobutylamino)-[1,1′-biphenyl]-3-yl)methoxy)phenyl)acetic acid]
31 | 8.05 | N[C@H](CO)c1cccc(-c2cc(COc3ccccc3CC(=O)O)cc(OC[C@H]3CCCO3)c2)c1F [Example 231-F, 2-(2-((3′-((S)-1-amino-2-hydroxyethyl)-2′-fluoro-5-(((R)-tetrahydrofuran-2-yl)methoxy)-[1,1′-biphenyl]-3-yl)methoxy)phenyl)acetic acid]
32 | 8.05 | C[C@@H](N)c1cccc(-c2cc(CCC3CCCO3)cc(COc3ccccc3CC(=O)O)c2)c1F (stereo partly drawn) [Example 236-C, 2-(2-((3′-((R)-1-aminoethyl)-2′-fluoro-5-(2-(tetrahydrofuran-2-yl)ethyl)-[1,1′-biphenyl]-3-yl)methoxy)phenyl)acetic acid]
33 | 8.10 | C[C@@H](N)c1cccc(-c2cc(COc3ccccc3CC(=O)O)cc(NCC(F)(F)F)c2)c1F [Example 226-C, (R)-2-(2-((3′-(1-aminoethyl)-2′-fluoro-5-((2,2,2-trifluoroethyl)amino)-[1,1′-biphenyl]-3-yl)methoxy)phenyl)acetic acid]
34 | 8.22 | C[C@@H](N)c1cccc(-c2cc(C#Cc3ccn(C)n3)cc(COc3ccccc3CC(=O)O)c2)c1F [Example 218-G, (R)-2-(2-((3′-(1-Aminoethyl)-2′-fluoro-5-((1-methyl-1H-pyrazol-3-yl)ethynyl)-[1,1′-biphenyl]-3-yl)methoxy)phenyl)acetic acid]
35 | 8.22 | C[C@@H](N)c1cccc(-c2cc(N)c(F)c(COc3ccccc3CC(=O)O)c2)c1F [Example 221 a), (R)-2-(2-((5-amino-3′-(1-aminoethyl)-2′,4-difluoro-[1,1′-biphenyl]-3-yl)methoxy)phenyl)acetic acid]
36 | 8.30 | C[C@@H](N)c1cccc(-c2cc(COc3ccccc3CC(=O)O)cc(NC3CCCC3)c2)c1F [Example 216-U]
37 | 8.40 | C[C@H](N)c1cccc(-c2cc(COc3ccccc3CC(=O)O)cc(OC[C@H]3CCCO3)c2)c1F [Example 233, 2-(2-((3′-((S)-1-aminoethyl)-2′-fluoro-5-(((R)-tetrahydrofuran-2-yl)methoxy)-[1,1′-biphenyl]-3-yl)methoxy)phenyl)acetic acid]
38 | 8.40 | NCc1cccc(-c2cc(COc3ccccc3CC(=O)O)cc(OC[C@H]3CCCO3)c2)c1F [Example 234-B, (R)-2-(2-((3′-(aminomethyl)-2′-fluoro-5-((tetrahydrofuran-2-yl)methoxy)-[1,1′-biphenyl]-3-yl)methoxy)phenyl)acetic acid]
39 | 8.52 | C[C@@H](N)c1cccc(-c2cc(COc3ccccc3CC(=O)O)cc(-c3cnn(C)c3)c2)c1F [Example 230, (R)-2-(2-((3′-(1-aminoethyl)-2′-fluoro-5-(1-methyl-1H-pyrazol-4-yl)-[1,1′-biphenyl]-3-yl)methoxy)phenyl)acetic acid]
40 | 8.70 | C[C@@H](N)c1cccc(-c2cc(COc3ccccc3CC(=O)O)cc(OC[C@H]3CCCO3)c2)c1F [Example 232, 2-(2-((3′-((R)-1-aminoethyl)-2′-fluoro-5-(((R)-tetrahydrofuran-2-yl)methoxy)-[1,1′-biphenyl]-3-yl)methoxy)phenyl)acetic acid]
